“Also recorded” adds a separate entry of the source.
The compounds below were run on acoustic startle and prepulse inhibition in rats (assay: Startle testing, prepulse inhibition (PPI) in rats). Settings: rats; 0.5 mg/kg, s.c.
Format: in vivo
From the text: (§1) Instruments) were used for rat experiments (details on startle apparatus and measures, see Male Non-Swiss Albino mice and male Sprague-Dawley rats (Harlan Sprague-Dawley) were housed (4 mice/cage; 2 rats/cage) in rooms with temperature and humidity controlled and water and food (Harlan Teklad) freely available. Mice were kept on a 12-hr light:dark cycle, whereas rats were kept on a 12-hr reverse light:dark cycle. For locomotor and observation experiments in mice, plastic 20×20×30 cm activity cages were equipped with photocell beams (AccuScan Instruments). Startle chambers (San Diego Instruments) were used for rat experiments (for details on startle apparatus and measures, see Mansbach et al., (1988) Psychopharmacology 94:507-14).
Rats were tested and groups (n=10) matched for levels of startle reactivity and prepulse inhibition (PPI; see Mansbach et al., (1988) Psychopharmacology 94:507-14). Two days later, test sessions started and consisted of a 5-min acclimation period with a constant background noise (65 dB), followed by 60 presentations of acoustic stimuli to measure acoustic startle responses. The 60 trials consisted of: twenty two 40-ms presentations of a 120 dB broadband pulse, ten 20-ms presentations of each prepulse intensity (68, 71, 77 dB) 100 ms prior to a 40-msec presentation of a 120 dB broadband pulse, and 8 NOSTIM trials in which no stimuli were delivered in order to assess general motor activation in the rats. Thirty min before testing, rats were treated with sterile water (s.c.), risperidone (1.0 mg/kg, i.p.), or AC-90179 (s.c.). Five min later, rats were administered DOI (0.5 mg/kg, s.c.) or 0.9% saline (s.c.). One-week later, rats were administered the same pretreatment drug or vehicle and crossed over to receive the treatment opposite to that they received the previous week. Startle magnitudes and percent PPI for the three prepulse intensities were calculated as described elsewhere (Bakshi, et al., (1994) J. Pharmacol. Exp. Ther. 271:787-94) and ANOVAs with repeated measures performed.

SMILES	effect on PPI
COc1cc(CC(C)N)c(OC)cc1I (stereo not drawn) [DOI, reference compound]	significantly disrupted PPI

Same assay, conditions: rats; 3-way repeated measures ANOVA

SMILES	effect on startle magnitude
Cc1nc2n(c(=O)c1CCN1CCC(c3noc4cc(F)ccc34)CC1)CCCC2 [risperidone]	no effect on startle magnitude

Same assay, conditions: rats; DOI 0.5 mg/kg s.c.; AC-90179 s.c., risperidone 1.0 mg/kg i.p.

SMILES	restoration of PPI in DOI-treated rats
Cc1nc2n(c(=O)c1CCN1CCC(c3noc4cc(F)ccc34)CC1)CCCC2 [risperidone]	effective in restoring PPI in DOI-treated rats; also recorded: significant effects

Same assay, conditions: saline (vehicle)-treated rats; AC-90179 s.c., risperidone 1.0 mg/kg i.p.

SMILES	effect on PPI on its own
Cc1nc2n(c(=O)c1CCN1CCC(c3noc4cc(F)ccc34)CC1)CCCC2 [risperidone]	no effect on PPI by itself

Each compound was assayed on DOI-induced head twitches in mice (assay: Observation for head twitches in DOI-treated mice). Settings: mice; 2.5 mg/kg, i.p., 15 min; score 0-6.
Format: in vivo
From the text: as §1
Mice were treated with 2.5 mg/kg DOI i.p. Five min later, mice were treated with AC-90179 s.c. and placed into activity cages. Ten min later, mice were observed using a repeated sampling technique. […] Each dose combination was tested in a separate group of animals (n=8) and the experimenter was blind to drug conditions. Head twitch scores were averaged followed by analysis of variance (ANOVA) and post-hoc Dunnett's t-test comparisons.
The effect of various compounds on head twitch behavior in mice treated with DOI was observed as described in Example 139. Animals received 0.1-30 mg/kg of the compound indicated via subcutaneous injection. MED indicates the minimum effective dose at which a statistically significant reduction in head twitching score (described above) was observed. MED=minimum effective dose in vivo.

SMILES	average head twitch score
COc1cc(CC(C)N)c(OC)cc1I (stereo not drawn) [DOI, reference compound]	2.6 (±0.3, S.E.M.)

Same assay, conditions: statistically significant reduction in head twitching score; DOI-treated mice; 0.1-30 mg/kg subcutaneous injection

SMILES	MED (minimum effective dose in vivo)
COc1ccc(CC(=O)N(Cc2ccc(C)cc2)C2CCN(Cc3ccccc3)CC2)cc1.Cl [Compound 26HCH17, N-((4-Methylphenyl)methyl)-N-(1-(phenylmethyl)piperidin-4-yl)-4-methoxyphenylacetamide hydrochloride]	30 mg/kg
COc1ccc(CC(=O)N(Cc2ccc(C)cc2)C2CCN(CC3CCCCC3)CC2)cc1 [Compound 42ELH45, 2-(4-Methoxyphenyl)-N-(4-methylbenzyl)-N-(1-cyclohexylmethylpiperidin-4-yl)acetamide]	30 mg/kg
COc1ccc(CC(=O)N(Cc2ccc(C)cc2)C2CCN(C3CCCC3)CC2)cc1 [Compound 42ELH75, 2-(4-Methoxyphenyl)-N-(4-methylbenzyl)-N-(1-cyclopentylpiperidin-4-yl)acetamide]	≦10 mg/kg
CCN1CCC(N(Cc2ccc(C)cc2)C(=O)Cc2ccc(OC)cc2)CC1 [Compound 42ELH80, 2-(4-Methoxyphenyl)-N-(4-methylbenzyl)-N-(1-ethylpiperidin-4-yl)acetamide]	≦10 mg/kg
COc1ccc(CC(=O)N(Cc2ccc(Cl)cc2)C2CCN(C(C)C)CC2)cc1 [Compound 42ELH90, 2-(4-Methoxyphenyl)-N-(4-chlorbenzyl)-N-(1-isopropylpiperidin-4-yl)acetamide]	~10 mg/kg
Cc1ccc(CN(C(=O)Cc2ccc(Cl)cc2)C2CCN(C(C)C)CC2)cc1 [Compound 47AKU-7, 2-(4-Chlorophenyl)-N-(4-methylbenzyl)-N-(1-isopropylpiperidin-4-yl)acetamide]	≦10 mg/kg
Cc1ccc(CN(C(=O)Cc2ccc(Cl)cc2)C2CCN(C)CC2)cc1 [Compound 47AKU-8, 2-(4-Chlorophenyl)-N-(4-methylbenzyl)-N-(1-methylpiperidin-4-yl)-acetamide]	≦10 mg/kg
Cc1ccc(CN(C(=O)Cc2ccc(Cl)cc2)C2CCN(C3CCCC3)CC2)cc1 [Compound 47AKU-11, 2-(4-Chlorophenyl)-N-(4-methylbenzyl)-N-(1-cyclopentylpiperidin-4-yl)-acetamide]	~10 mg/kg
CCN1CCC(N(Cc2ccc(C)cc2)C(=O)Cc2ccc(Cl)cc2)CC1 [Compound 47AKU-12, 2-(4-Chlorophenyl)-N-(4-methylbenzyl)-N-(1-ethylpiperidin-4-yl)acetamide]	≦10 mg/kg
Cc1ccc(CN(C(=O)Cc2ccccc2)C2CCN(C)CC2)cc1 [Compound 47AKU-13, 2-Phenyl-N-(4-methylbenzyl)-N-(1-methylpiperidin-4-yl)-acetamide]	≦10 mg/kg
Cc1ccc(CN(C(=O)Cc2ccc(F)cc2)C2CCN(C)CC2)cc1 [Compound 47AKU-14, 2-(4-Flourophenyl)-N-(4-methylbenzyl)-N-(1-methylpiperidin-4-yl)-acetamide]	≦10 mg/kg
Cc1ccc(CN(C(=O)Cc2ccc(Cl)cc2)C2CCN(CCO)CC2)cc1 [Compound 47AKU-18, 2-(4-Chlorophenyl)-N-(4-methylbenzyl)-N-(1-(2-hydroxyethyl)-piperidin-4-yl)-acetamide]	≧10 mg/kg
Cc1ccc(CN(C(=O)Cc2ccc(Cl)cc2)C2CCN(C3CCC3)CC2)cc1 [Compound 47AKU-19, 2-(4-Chlorophenyl)-N-(4-methylbenzyl)-N-(1-cyclobutylpiperidin-4-yl)-acetamide]	>10 mg/kg
COc1ccc(CC(=O)N(Cc2ccc(C)cc2)C2CCN(C3CCC3)CC2)cc1 [Compound 47AKU-20, 2-(4-Methoxyphenyl)-N-(4-methylbenzyl)-N-(1-cyclobutylpiperidin-4-yl)acetamide]	≦10 mg/kg
COc1ccc(CC(=O)N(Cc2ccc(C)cc2)C2CC3CCC(C2)N3C)cc1 (stereo not drawn) [Compound 47AKU-21, 2-(4-Methoxyphenyl)-N-(4-methylbenzyl)-N-(tropin-4-yl)acetamide]	>10 mg/kg
Cc1ccc(CN(C(=O)NCc2ccccc2)C2CCN(C)CC2)cc1 [Compound 47AKU-22, N-(4-Methylbenzyl)-N-(1-methylpiperidin-4-yl)-N′-benzyl-carbamide]	≦10 mg/kg
CN1CCC(N(CCc2ccccc2)C(=O)NCc2ccccc2)CC1 [Compound 47AKU-25, N-Phenethyl-N-(1-methylpiperidin-4-yl)-N′-benzyl-carbamide]	>10 mg/kg
COc1ccc(CNC(=O)N(Cc2ccc(C)cc2)C2CCN(C)CC2)cc1 [Compound 47AKU-44, N-(4-Methylbenzyl)-N-(1-methylpiperidin-4-yl)-′N′-(4-methoxybenzyl)-carbamide]	≦10 mg/kg
COc1ccc(CC(=O)N(Cc2ccc(C)cc2)C2CCN(C(C)(C)C)CC2)cc1 [Compound 47AKU-49, 2-(4-Methoxyphenyl)-N-(4-methylbenzyl)-N-(1-t-butylpiperidin-4-yl)-acetamide]	≦10 mg/kg
CN1CCC(N(Cc2ccc(F)cc2)C(=O)Cc2ccc(F)cc2)CC1 [Compound 50ELH6, 2-(4-Fluorophenyl)-N-(4-fluorobenzyl)-N-(1-methylpiperidin-4-yl)acetamide]	≦10 mg/kg
COc1ccc(CC(=O)N(CCCc2ccccc2)C2CCN(C)CC2)cc1 [Compound 50ELH65, 2-(4-Methoxyphenyl)-N-(3-phenyl-1-propyl)-N-(1-methylpiperidin-4-yl)acetamide]	≦10 mg/kg
COc1ccc(CC(=O)N(CCc2ccc(C)cc2)C2CCN(C)CC2)cc1 [Compound 50ELH68]	≦10 mg/kg
COc1ccc(CC(=O)N(CCc2ccc(F)cc2)C2CCN(C)CC2)cc1 [Compound 50ELH93A, 2-(4-Methoxyphenyl)-N-(2-4-(fluorophenyl)ethyl)-N-(1-methylpiperidin-4-yl)acetamide]	≦10 mg/kg
CCOc1ccc(CC(=O)N(Cc2ccc(C)cc2)C2CCN(C)CC2)cc1 [Compound 58AKU-4, 2-(4-Ethoxyphenyl)-N-(4-methylbenzyl)-N-(1-methylpiperidin-4-yl)acetamide]	≦10 mg/kg
CCCCOc1ccc(CC(=O)N(Cc2ccc(C)cc2)C2CCN(C)CC2)cc1 [Compound 58AKU-5, 2-(4-Butoxyphenyl)-N-(4-methylbenzyl)-N-(1-methylpiperidin-4-yl)acetamide]	≦1 mg/kg
Cc1ccc(CN(C(=O)Cc2ccc(OC(C)C)cc2)C2CCN(C)CC2)cc1 [Compound 58AKU-6, 2-(4-i-Propoxyphenyl)-N-(4-methylbenzyl)-N-(1-methylpiperidin-4-yl)acetamide]	≦10 mg/kg
CCOc1ccc(CC(=O)N(CCc2ccc(F)cc2)C2CCN(C)CC2)cc1 [Compound 63ELH20, 2-(4-ethoxyphenyl)-N-[2-(4-fluorophenyl)ethyl]-N-(1-methylpiperidin-4-yl)acetamide]	≦10 mg/kg
CCOc1ccc(CC(=O)N(Cc2ccc(F)cc2)C2CCN(C)CC2)cc1 [Compound 63ELH21, 2-(4-Ethoxyphenyl)-N-(4-fluorobenzyl)-N-(1-methylpiperidin-4-yl)acetamide]	≦10 mg/kg
